The text below walks through data of patent US20140010939A1, “Sweetness Enhancers, Sweetener Compositions, Methods of Making the Same and Consumables Containing the Same” (Nutrinova Nutrition Specialties & Food Ingredients GmbH, priority 2011, published 2014).

The structures appear in SMILES notation.

This data set can be described thus: Solubility assessment in buffer (visual check by two persons). It counts as physicochemical. Here is the method: 20 μmol (8.96 mg) of the compound of formula (Ia) were used for samples preparation. The samples were partitioned into two portions for each buffer system and placed into 1.6 ml glass vials. To each of the vials 100 μl of the respective buffer solution was added to prepare the 100 mM samples. All Samples were thoroughly sonicated and vortexed to yield homogenous solutions or suspensions. The resulting set of samples consisted of • Compound of formula (Ia)—100 mM, buffer 3.0 • Compound of formula (Ia)—100 mM, buffer 6.5
In a second step from each of the prior listed samples 7.5 μl were pipetted into 1.6 ml glass vials followed by addition of 142.5 μl of the respective buffer solution. The resulting set of samples consisted of: • Compound of formula (Ia)—5 mM, buffer 3.0 • Compound of formula (Ia)—5 mM, buffer 6.5
In a third step, after sonication and vortexing to yield homogenous solutions or suspensions, 25 μl from each of the samples listed above were pipetted into 1.6 ml glass vials followed by addition of 100 μl of the respective buffer solution. The resulting set of samples consisted of: • Compound of formula (Ia)—1 mM, buffer 3.0 • Compound of formula (Ia)—1 mM, buffer 6.5
After the preparation of all 6 samples, the entire set was sonicated and vortexed again.
Afterwards the set of 6 samples was placed into a deep freezer and stored at −22° C. for 72 h. After that period, the samples were thawed, sonicated, and vortexed.
In a final step the set of 6 samples was placed into a dark box at 23° C. for 72 h. After that period, the samples were sonicated, and vortexed.
The results of the solubility study are documented in three tables. Three categories for the state of solution are in generally used: “Yes”, “Incomplete” and “No”. The category “Yes” is only used in case of a clear flawless solution. The category “Incomplete” is used in case of a visible strong reduction of undissolved matter. The category “No” was used for all other cases.

As for `CC(=O)N(O)CCCCCNC(=O)C(O)(CC(=O)O)CC(=O)NCCCN(O)C(C)=O` (stereo not shown) [compound of formula (Ia)], the Dissolved after freezing/thawing entry runs as follows: (1 mM, buffer 3.0, after −22° C. for 72 h and thawing) “yes”; (1 mM, buffer 6.5, after −22° C. for 72 h and thawing) “yes”; (5 mM, buffer 3.0, after −22° C. for 72 h and thawing) “yes”; (5 mM, buffer 6.5, after −22° C. for 72 h and thawing) “yes”; (100 mM, buffer 3.0, after −22° C. for 72 h and thawing) “yes”; (100 mM, buffer 6.5, after −22° C. for 72 h and thawing) “yes”. Besides, the “Dissolved after three days at room temperature” value is recorded as “yes” (1 mM, buffer 3.0, dark box at 23° C. for 72 h); “yes” (1 mM, buffer 6.5, dark box at 23° C. for 72 h); “yes” (5 mM, buffer 3.0, dark box at 23° C. for 72 h); “yes” (5 mM, buffer 6.5, dark box at 23° C. for 72 h); “yes” (100 mM, buffer 3.0, dark box at 23° C. for 72 h); “yes” (100 mM, buffer 6.5, dark box at 23° C. for 72 h). Besides, the Immediately dissolved result was “yes” (1 mM, buffer 3.0, directly after sample preparation); “yes” (1 mM, buffer 6.5, directly after sample preparation); “yes” (5 mM, buffer 3.0, directly after sample preparation); “yes” (5 mM, buffer 6.5, directly after sample preparation); “yes” (100 mM, buffer 3.0, directly after sample preparation); “yes” (100 mM, buffer 6.5, directly after sample preparation). In addition, the “Solubility (overall)” value (summary: 1, 5 and 100 mM in water with buffer at pH 3.0 and 6.5) is reported as “immediately dissolved at all conditions”.
